From patent US20230248715A1, “METHOD OF TREATING ACUTE MIGRAINE WITH CGRP-ACTIVE COMPOUND” (Merck Sharp & Dohme Corp., priority 2016, published 2023)

Key:
acute migraine = assay: Phase IIb randomized, double-blind, placebo-controlled trial of ubrogepant (MK-1602-006; NCT01613248): efficacy; format: in vivo, human
Experimental: A Phase IIb, multicenter, randomized, double-blind, placebo-controlled trial was conducted (Merck Protocol MK-1602-006;published online at ClinicalTrials.gov as NCT01613248) to investigate the efficacy and safety of ubrogepant across a range of doses. The study was conducted in accordance with principles of Good Clinical Practice, and was approved by Schulman Associates Institutional Review Board Inc. Each participant provided written informed consent. This study complied with the International Headache Society's guidelines for controlled trials of drugs in migraine, including the use of two-hour pain freedom as an endpoint. The sample size was large, populations were well balanced, and demographics were reflective of the broader migraine populations, contributing to the generalizability of the trial. Participants were allocated in a double-blind fashion using a computer-generated randomized allocation schedule prepared by a blinded statistician. Randomization was stratified based on the participant's self-reported usual triptan response: oral triptan high-responder (current users of triptans who respond […]); oral triptan low-responder (current users of triptans who respond <75% of the time or those who have tried triptans but no longer use them); oral triptan naive. Numbered containers were used to implement allocation. Personnel at each study site used a central interactive voice response system to determine which container should be given to which participant. All study personnel, including investigators, site staff, participants, and sponsor staff remained blinded to treatment allocation throughout the study. Unblinding took place after data collection was complete. After being randomized, participants had up to two months to treat a qualifying migraine (as defined herein). Once the targeted number of treated participants with evaluable data was reached, study enrollment was stopped, as specified in the protocol at the sponsor's discretion. Participants who were enrolled but had not treated a migraine were asked to return their study medication and were discontinued from the study With reference to FIG. 1, eligible participants were allocated in a 1:1 ratio to one of the following treatment groups: 1, 10, 25, 50, and 100 mg of ubrogepant, or placebo. Study medication was provided to participants in a single bottle, with a single dose per bottle. Participants were instructed to take the dose when they experienced a qualifying migraine defined by the following conditions: migraine headache was moderate or severe (grade 2 or 3 on pain scale); migraine headache started less than four hours earlier; the migraine headache was a new headache that had not been previously treated and was not a recurrence of a previous migraine head ache (at least 48 hours had elapsed since the complete termination of their last attack (pain and all associated symptoms); no other migraine headache or headache had occurred in the previous 48 hours; the migraine headache was not already resolving on its own; and no prohibited medication had been taken. The onset of migraine and the results from administering the study medication were self-reported by participants using a paper diary. Headache severity was measured on the following pain scale: 0 none; 1 mild; 2 moderate; 3 severe. Participants assessed headache at baseline and then every 30 minutes up to two hours, then hourly up to four hours and at 6,8,24, and 48 hours. The primary efficacy endpoints were pain freedom at two hours post-dose (reduction in headache severity from grade 2 or 3 at baseline to grade 0) and headache response at two hours post-dose (reduction in headache severity from grade 2 or 3 at baseline to grade 1 or 0). […]

[1] = Phase IIb randomized, double-blind, placebo-controlled trial of ubrogepant (MK-1602-006; NCT01613248): safety endpoints; format: in vivo, human
Experimental: A Phase IIb, multicenter, randomized, double-blind, placebo-controlled trial was conducted (Merck Protocol MK-1602-006;published online at ClinicalTrials.gov as NCT01613248) to investigate the efficacy and safety of ubrogepant across a range of doses. The study was conducted in accordance with principles of Good Clinical Practice, and was approved by Schulman Associates Institutional Review Board Inc. Each participant provided written informed consent. This study complied with the International Headache Society's guidelines for controlled trials of drugs in migraine, including the use of two-hour pain freedom as an endpoint. The sample size was large, populations were well balanced, and demographics were reflective of the broader migraine populations, contributing to the generalizability of the trial.
With reference to FIG. 1, eligible participants were allocated in a 1:1 ratio to one of the following treatment groups: 1, 10, 25, 50, and 100 mg of ubrogepant, or placebo. Study medication was provided to participants in a single bottle, with a single dose per bottle. Participants were instructed to take the dose when they experienced a qualifying migraine defined by the following conditions: migraine headache was moderate or severe (grade 2 or 3 on pain scale); migraine headache started less than four hours earlier; the migraine headache was a new headache that had not been previously treated and was not a recurrence of a previous migraine head ache (at least 48 hours had elapsed since the complete termination of their last attack (pain and all associated symptoms); no other migraine headache or headache had occurred in the previous 48 hours; the migraine headache was not already resolving on its own; and no prohibited medication had been taken.
Participants were also monitored for safety endpoints, including standard safety assessment (medical history and physical examination; vital signs; electrocardiogram; laboratory tests including hematology, blood chemistry, and urinalysis; and female participants of childbearing potential were administered pregnancy tests) and adverse events, including any post-screening elevation in participants of aspartate amino-transferase (AST) and/or ALT, defined as: >3×upper-limit-of-normal (>3×ULN).
For the analysis of efficacy data, the Full-Analysis-Set population served as the primary population. […] The All-Subjects-as-Treated (ASaT) population was used for safety analyses.

SMILES: C[C@@H]1[C@H](c2ccccc2)C[C@H](NC(=O)c2cnc3c(c2)C[C@@]2(C3)C(=O)Nc3ncccc32)C(=O)N1CC(F)(F)F [ubrogepant]
- two-hour pain-free rate vs placebo (acute migraine; 25 mg, oral, two hours post-dose, nominal p value): nominally significantly higher two-hour pain-free rate than placebo
- sustained pain freedom 2-24 hours vs placebo (acute migraine; 25 mg, oral, nominal p value): Nominally significant differences from placebo
- sustained pain relief 2-48 hours vs placebo (acute migraine; 25 mg, oral, nominal p value): Nominally significant differences from placebo
- total migraine freedom at two hours vs placebo (acute migraine; 25 mg, oral, nominal p value): Nominally significant differences from placebo
- two-hour pain-free rate vs placebo (acute migraine; 50 mg, oral, two hours post-dose, nominal p value): nominally significantly higher two-hour pain-free rate than placebo
- absence of phonophobia at two hours vs placebo (acute migraine; 50 mg, oral, nominal p value): Nominally significant differences from placebo
- absence of photophobia at two hours vs placebo (acute migraine; 50 mg, oral, nominal p value): Nominally significant differences from placebo
- sustained pain freedom 2-24 hours vs placebo (acute migraine; 50 mg, oral, nominal p value): Nominally significant differences from placebo
- sustained pain relief 2-24 hours vs placebo (acute migraine; 50 mg, oral, nominal p value): Nominally significant differences from placebo
- sustained pain relief 2-48 hours vs placebo (acute migraine; 50 mg, oral, nominal p value): Nominally significant differences from placebo
- total migraine freedom 2-24 hours vs placebo (acute migraine; 50 mg, oral, nominal p value): Nominally significant differences from placebo
- total migraine freedom at two hours vs placebo (acute migraine; 50 mg, oral, nominal p value): Nominally significant differences from placebo
- two-hour pain freedom vs placebo (acute migraine; 100 mg, oral, two hours post-dose): statistically significant superiority to placebo
- secondary endpoints vs placebo (acute migraine; 100 mg, oral, nominal p values): nominally significant improvements vs placebo on all secondary endpoints except absence of nausea at two hours
- treatment effects across most endpoints (all efficacy data) (acute migraine; 25-mg, 50-mg, and 100-mg doses): consistent positive treatment effects
- response trend across ubrogepant doses, proportion of participants who achieved two-hour pain freedom (acute migraine; oral tablet, single dose, 1, 10, 25, 50, 100 mg, p<0.001 for trend test): positive response trend
- dose dependence of AEs ([1]; 1-100 mg single dose): No AEs showed clear dose dependence
- incidence of AEs within the 14 days post-dose ([1]; compared with incidence within 48 hours): generally similar to the incidence within 48 hours
- other abnormal laboratory values ([1]; single dose): no other abnormal laboratory values of clinical relevance
- post-treatment elevations of ALT >3×ULN ([1]; single dose): no observed post-treatment elevations
- liver enzyme increases ([1]; single-dose study): no liver enzyme increases clearly attributable to administration of ubrogepant
- tolerability on administration ([1]; summary statement): well-tolerated
